According to patent US20150157739A1, “Imidazo[2,1]thiazol-3-one derivatives” (Hoffmann-La Roche Inc., priority 2012, published 2015):

Experiments:
[1] = molecular target: T1, aggregated recombinant human-microtubule associated protein Tau (Homo sapiens, UniProt P10636); assay: Thiazin-red R displacement fluorescence assay on aggregated Tau; assay type: binding; conditions: displacement of Thiazin-red R from aggregated Tau; compound 0.3 nM to 10000 nM; 30 min room temperature; Ex 531 nm/Em 595 nm
T1 construct: Recombinant human-microtubule associated protein Tau purified from E. coli is aggregated at a concentration of 5 μM with Arachidonic Acid (100 μM) in Tris 10 mM pH8, 24 h at 37° C
T1 sequence (P10636 whole entry): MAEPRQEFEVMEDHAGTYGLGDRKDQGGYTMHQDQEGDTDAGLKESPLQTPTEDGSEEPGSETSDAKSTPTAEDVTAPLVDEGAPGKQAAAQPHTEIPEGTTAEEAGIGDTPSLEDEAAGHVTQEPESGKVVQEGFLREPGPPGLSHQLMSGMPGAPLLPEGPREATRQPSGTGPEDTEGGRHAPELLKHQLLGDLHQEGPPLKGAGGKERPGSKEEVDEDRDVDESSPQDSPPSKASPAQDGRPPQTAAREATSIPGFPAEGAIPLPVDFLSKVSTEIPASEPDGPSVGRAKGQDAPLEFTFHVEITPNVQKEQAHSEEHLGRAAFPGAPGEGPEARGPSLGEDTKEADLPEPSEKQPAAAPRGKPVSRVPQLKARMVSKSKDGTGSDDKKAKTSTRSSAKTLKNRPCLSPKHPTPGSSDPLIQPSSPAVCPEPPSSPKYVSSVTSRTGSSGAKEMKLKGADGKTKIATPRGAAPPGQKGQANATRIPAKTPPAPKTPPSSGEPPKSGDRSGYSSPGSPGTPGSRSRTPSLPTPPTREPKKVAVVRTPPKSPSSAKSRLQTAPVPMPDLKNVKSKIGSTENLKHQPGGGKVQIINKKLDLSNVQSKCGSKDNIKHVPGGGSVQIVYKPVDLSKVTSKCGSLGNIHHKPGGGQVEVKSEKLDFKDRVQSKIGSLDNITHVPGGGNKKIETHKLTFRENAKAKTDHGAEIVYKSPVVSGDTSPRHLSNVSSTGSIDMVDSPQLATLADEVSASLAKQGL

[2] = molecular target: T2, aggregated synthetic Aβ40 (Homo sapiens, UniProt P05067); assay: Thiazin-red R displacement fluorescence assay on aggregated A-beta; assay type: binding; conditions: displacement of Thiazin-red R from aggregated Aβ40; compound 0.3 nM to 10000 nM; 30 min room temperature; Ex 531 nm/Em 595 nm
T2 construct: Synthetic Aβ40 is aggregated at a concentration of 50 μM
T2 sequence (P05067 672-711 limits assumed): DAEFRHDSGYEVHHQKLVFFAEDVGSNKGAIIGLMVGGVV

SMILES	IC50 [1]	IC50 [2]
CCCNC(=O)c1ccc(-c2cn3c(=O)/c(=C/c4cc(Cl)c(O)c(OC)c4)sc3n2)cc1 [Example 115, 4-{2-[1-(3-Chloro-4-hydroxy-5-methoxy-phenyl)-meth-(Z)-ylidene]-3-oxo-2,3-dihydro-imidazo[2,1-b]thiazol-6-yl}-N-propyl-benzamide]	2 nM	356 nM
COc1cc(/C=c2\sc3nc(-c4ccc(C(=O)NCCF)cc4)cn3c2=O)cc(Cl)c1O [Example 116, 4-{2-[1-(3-Chloro-4-hydroxy-5-methoxy-phenyl)-meth-(Z)-ylidene]-3-oxo-2,3-dihydro-imidazo[2,1-b]thiazol-6-yl}-N-(2-fluoro-ethyl)-benzamide]	3 nM	820 nM
COc1cc(/C=c2\sc3nc(-c4ccc(C(=O)NCCCF)cc4)cn3c2=O)cc(Cl)c1O [Example 117, 4-{2-[1-(3-Chloro-4-hydroxy-5-methoxy-phenyl)-meth-(Z)-ylidene]-3-oxo-2,3-dihydro-imidazo[2,1-b]thiazol-6-yl}-N-(3-fluoro-propyl)-benzamide]	5 nM	643 nM
COc1cc(/C=c2\sc3nc(-c4cccc(C(=O)N(C)CCc5cccc(F)c5)c4)cn3c2=O)cc(Cl)c1O [Example 118, 3-{2-[1-(3-Chloro-4-hydroxy-5-methoxy-phenyl)-meth-(Z)-ylidene]-3-oxo-2,3-dihydro-imidazo[2,1-b]thiazol-6-yl}-N-[2-(3-fluoro-phenyl)-ethyl]-N-methyl-benzamide]	12.9 nM	> 10000 nM
CCCOc1cc(/C=c2\sc3nc(-c4cnc[nH]4)cn3c2=O)cc(Cl)c1O [Example 119, 2-[1-(3-Chloro-4-hydroxy-5-propoxy-phenyl)-meth-(Z)-ylidene]-6-(3H-imidazol-4-yl)-imidazo[2,1-b]thiazol-3-one]	60 nM	3120 nM
COc1cc(/C=c2\sc3nc(-c4cccc(C(N)=O)c4)cn3c2=O)cc(F)c1O [Example 121, 3-{2-[1-(3-Fluoro-4-hydroxy-5-methoxy-phenyl)-meth-(Z)-ylidene]-3-oxo-2,3-dihydro-imidazo[2,1-b]thiazol-6-yl}-benzamide]	19 nM	591 nM
CCCOc1cc(/C=c2\sc3nc(-c4ccncc4)cn3c2=O)cc(F)c1O [Example 122, 2-[1-(3-Fluoro-4-hydroxy-5-propoxy-phenyl)-meth-(Z)-ylidene]-6-pyridin-4-yl-imidazo[2,1-b]thiazol-3-one]	23.5 nM	2670 nM
O=c1/c(=C/c2cc(Cl)c(O)c(OCCCF)c2)sc2nc(-c3ccncc3)cn12 [Example 123, 2-[1-(3-Chloro-5-(3-fluoropropoxy)-4-hydroxy-phenyl)-meth-(Z)-ylidene]-6-pyridin-4-yl-imidazo[2,1-b]thiazol-3-one]	12 nM	1060 nM
O=c1/c(=C/c2cc(F)c(O)c(OCCCF)c2)sc2nc(-c3ccncc3)cn12 [Example 124, 2-[1-(3-Fluoro-5-(3-fluoropropoxy)-4-hydroxy-phenyl)-meth-(Z)-ylidene]-6-pyridin-4-yl-imidazo[2,1-b]thiazol-3-one]	17 nM	1230 nM
COc1cc(/C=c2\sc3nc(-c4ccc(C(=O)N(C)CCF)cc4)cn3c2=O)cc(Cl)c1O [Example 125, 4-{2-[1-(3-Chloro-4-hydroxy-5-methoxy-phenyl)-meth-(Z)-ylidene]-3-oxo-2,3-dihydro-imidazo[2,1-b]thiazol-6-yl}-N-(2-fluoro-ethyl)-N-methyl-benzamide]	17 nM	621 nM
COc1cc(/C=c2\sc3nc(-c4ccc(C(=O)N(C)C)cc4)cn3c2=O)cc(Cl)c1O [Example 126, 4-{2-[1-(3-Chloro-4-hydroxy-5-methoxy-phenyl)-meth-(Z)-ylidene]-3-oxo-2,3-dihydro-imidazo[2,1-b]thiazol-6-yl}-N,N-dimethyl-benzamide]	28 nM	550 nM
COc1cc(/C=c2\sc3nc(-c4ccc(C(=O)N5CCC(F)CC5)cc4)cn3c2=O)cc(Cl)c1O [Example 127, 2-[1-(3-Chloro-4-hydroxy-5-methoxy-phenyl)-meth-(Z)-ylidene]-6-[4-(4-fluoro-piperidine-1-carbonyl)-phenyl]-imidazo[2,1-b]thiazol-3-one]	6 nM	118 nM
CCCN(C)C(=O)c1ccc(-c2cn3c(=O)/c(=C/c4cc(Cl)c(O)c(OC)c4)sc3n2)cc1 [Example 128, 4-{2-[1-(3-Chloro-4-hydroxy-5-methoxy-phenyl)-meth-(Z)-ylidene]-3-oxo-2,3-dihydro-imidazo[2,1-b]thiazol-6-yl}-N-methyl-N-propyl-benzamide]	9 nM	218 nM
CCCOc1cc(/C=c2\sc3nc(-c4cnccn4)cn3c2=O)cc(Cl)c1O [Example 129, 2-[1-(3-Chloro-4-hydroxy-5-propoxy-phenyl)-meth-(Z)-ylidene]-6-pyrazin-2-yl-imidazo[2,1-b]thiazol-3-one]	64 nM	2220 nM
CCCOc1cc(/C=c2\sc3nc(-c4cncnc4)cn3c2=O)cc(Cl)c1O [Example 130, 2-[1-(3-Chloro-4-hydroxy-5-propoxy-phenyl)-meth-(Z)-ylidene]-6-pyrimidin-5-yl-imidazo[2,1-b]thiazol-3-one]	67 nM	1940 nM
CCCOc1cc(/C=c2\sc3nc(-c4ccsc4)cn3c2=O)cc(Cl)c1O [Example 131, 2-[1-(3-Chloro-4-hydroxy-5-propoxy-phenyl)-meth-(Z)-ylidene]-6-thiophen-3-yl-imidazo[2,1-b]thiazol-3-one]	26 nM	979 nM
CCCOc1cc(/C=c2\sc3nc(-c4cccs4)cn3c2=O)cc(Cl)c1O [Example 132, 2-[1-(3-Chloro-4-hydroxy-5-propoxy-phenyl)-meth-(Z)-ylidene]-6-thiophen-2-yl-imidazo[2,1-b]thiazol-3-one]	41 nM	718 nM
COc1cc(/C=c2\sc3nc(-c4ccc(C(=O)N5CC(F)C5)cc4)cn3c2=O)cc(Cl)c1O [Example 134, 2-[1-(3-Chloro-4-hydroxy-5-methoxy-phenyl)-meth-(Z)-ylidene]-6-[4-(3-fluoro-azetidine-1-carbonyl)-phenyl]-imidazo[2,1-b]thiazol-3-one]	2 nM	133 nM
CCCOc1cc(/C=c2\sc3nc(-c4ccccn4)cn3c2=O)cc(Cl)c1O [Example 136, 2-[1-(3-Chloro-4-hydroxy-5-propoxy-phenyl)-meth-(Z)-ylidene]-6-pyridin-2-yl-imidazo[2,1-b]thiazol-3-one]	30 nM	293 nM
COc1cc(/C=c2\sc3nc(-c4ccc(C(=O)N(C)CCCF)cc4)cn3c2=O)cc(Cl)c1O [Example 137]	7 nM	332 nM
COc1cc(/C=c2\sc3nc(-c4ccc(C(=O)O)cc4)cn3c2=O)cc(F)c1O [Example 138, 4-{2-[1-(3-Fluoro-4-hydroxy-5-methoxy-phenyl)-meth-(Z)-ylidene]-3-oxo-2,3-dihydro-imidazo[2,1-b]thiazol-6-yl}-benzoic acid]	14 nM	898 nM
COc1cc(/C=c2\sc3nc(-c4ccc(C(=O)N(C)CCF)cc4)cn3c2=O)cc(F)c1O [Example 146]	48 nM	1010 nM
COc1cc(/C=c2\sc3nc(-c4ccc(C(=O)N(C)CCCF)cc4)cn3c2=O)cc(F)c1O [Example 147]	41 nM	448 nM
COc1cc(/C=c2\sc3nc(-c4ccc(C(=O)OCCF)cc4)cn3c2=O)cc(Cl)c1O [Example 148, 4-{2-[1-(3-Chloro-4-hydroxy-5-methoxy-phenyl)-meth-(Z)-ylidene]-3-oxo-2,3-dihydro-imidazo[2,1-b]thiazol-6-yl}-benzoic acid 2-fluoro-ethyl ester]	4 nM	38 nM
COc1cc(/C=c2\sc3nc(-c4ccc(C(=O)OCCCF)cc4)cn3c2=O)cc(Cl)c1O [Example 149, 4-{2-[1-(3-Chloro-4-hydroxy-5-methoxy-phenyl)-meth-(Z)-ylidene]-3-oxo-2,3-dihydro-imidazo[2,1-b]thiazol-6-yl}-benzoic acid 3-fluoro-propyl ester]	2 nM	168 nM
COc1cc(/C=c2\sc3nc(-c4ccc(C(=O)NCCNC(=O)OC(C)(C)C)cc4)cn3c2=O)cc(Cl)c1O [Example 150, [2-(4-{2-[1-(3-Chloro-4-hydroxy-5-methoxy-phenyl)-meth-(Z)-ylidene]-3-oxo-2,3-dihydro-imidazo[2,1-b]thiazol-6-yl}-benzoylamino)-ethyl]-carbamic acid tert-butyl ester]	1.8 nM	118 nM
COc1cc(/C=c2\sc3nc(-c4ccc(C(=O)NCCN)cc4)cn3c2=O)cc(Cl)c1O [Example 151, N-(2-Amino-ethyl)-4-{2-[1-(3-chloro-4-hydroxy-5-methoxy-phenyl)-meth-(Z)-ylidene]-3-oxo-2,3-dihydro-imidazo[2,1-b]thiazol-6-yl}-benzamide]	12 nM	24 nM
COc1cc(/C=c2\sc3nc(-c4cccc(S(=O)(=O)F)c4)cn3c2=O)cc(Cl)c1O [Example 152, 3-{2-[1-(3-Chloro-4-hydroxy-5-methoxy-phenyl)-meth-(Z)-ylidene]-3-oxo-2,3-dihydro-imidazo[2,1-b]thiazol-6-yl}-benzenesulfonyl fluoride]	7 nM	19 nM
Cc1cc(-c2cn3c(=O)/c(=C/c4cc(Cl)c(O)c(OCCCF)c4)sc3n2)cc(C)n1 [Example 153, 2-[1-[3-Chloro-5-(3-fluoro-propoxy)-4-hydroxy-phenyl]-meth-(Z)-ylidene]-6-(2,6-dimethyl-pyridin-4-yl)-imidazo[2,1-b]thiazol-3-one]	46 nM	605 nM
